# Results: US5208224A, “Phosphorus containing compounds as antihypercholesterolemic and antiatherosclerotic agents” (Warner-Lambert Company, priority 1991, dated 1993)
# Like-named read-outs stand apart in the source and are kept apart here.
# Molecular target: T1, acyl-CoA:cholesterol acyltransferase (ACAT) (Oryctolagus cuniculus, UniProt G1SFD9)
# T1 construct: tissue preparation containing rabbit intestinal microsomes; from tissue; host or cells: rabbit intestinal microsomes
# T1 sequence (G1SFD9 1-524): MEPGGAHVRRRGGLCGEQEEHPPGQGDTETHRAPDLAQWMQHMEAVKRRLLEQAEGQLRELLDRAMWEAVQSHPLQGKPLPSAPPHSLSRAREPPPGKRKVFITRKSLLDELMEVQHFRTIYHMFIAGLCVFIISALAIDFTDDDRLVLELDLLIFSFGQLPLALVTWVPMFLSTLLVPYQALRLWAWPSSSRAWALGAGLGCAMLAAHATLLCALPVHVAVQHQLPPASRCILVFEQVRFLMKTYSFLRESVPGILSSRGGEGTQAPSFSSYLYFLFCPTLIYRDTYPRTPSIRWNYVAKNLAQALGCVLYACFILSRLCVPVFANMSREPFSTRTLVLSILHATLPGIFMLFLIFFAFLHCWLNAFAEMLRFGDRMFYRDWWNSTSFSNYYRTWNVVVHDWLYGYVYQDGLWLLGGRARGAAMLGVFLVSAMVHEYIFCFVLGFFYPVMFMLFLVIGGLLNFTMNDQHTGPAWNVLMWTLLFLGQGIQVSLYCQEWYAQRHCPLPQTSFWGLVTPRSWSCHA
# Assay: In vitro inhibition of ACAT: formation of radiolabeled cholesterol oleate from radiolabeled oleic acid in rabbit intestinal microsomes
# Format: biochemical
# From the text: The test assesses the ability of a test compound to inhibit the acylation of cholesterol by oleic acid by measuring the amount of radiolabeled cholesterol oleate formed from radiolabeled oleic acid in a tissue preparation containing rabbit intestinal microsomes.
# [1] = rabbit intestinal microsomes, read-out: IC50 (concentration of test compound required to inhibit cholesteryl oleate formation to 50% of control)
SMILES,IC50 [1] [nM],IC50 [nM]
"CC(C)c1cccc(C(C)C)c1NC(=O)CP(=O)(OCc1ccccc1)OCc1ccccc1 [Example 36, [2-[[2,6-Bis(1-methylethyl)phenyl]amino]-2-oxoethyl]phosphonic Acid, Bis (Phenylmethyl)ester]",72,–
"CC(C)c1cccc(C(C)C)c1NC(=O)CP(=O)(c1ccccc1)c1ccccc1 [Example 2, N-2,6-Bis(1-methylethyl)phenyl-2-(diphenylphosphinyl)acetamide]",2300,–
"CCCCCCCCCCC1CN(Cc2ccccc2)P(=O)(OCC(=O)Nc2c(C(C)C)cccc2C(C)C)O1 (racemic) [Example 30, (±)-N-[2,6-Bis(1-methylethyl)phenyl]2-[[5-decyl-3-(phenylmethyl)-1,3,2-oxazaphosphonolidin-2-yl]-oxy]acetamide, P-oxide]",–,33
"CCCCCCCCCCCCC(C)OP(=O)(Oc1ccccc1)N(CC(=O)Nc1c(C(C)C)cccc1C(C)C)Cc1ccccc1 (racemic) [Example 35, (±)-[2-[[2,6-Bis(1-methylethyl)phenyl]amino]-2-oxoethyl](phenylmethyl)phosphoramidic Acid, 1-Methyltridecyl Phenyl Ester]",–,160
"CCCCCCC(C)OP(=O)(CC(=O)Nc1c(C(C)C)cccc1C(C)C)c1ccccc1 (racemic) [Example 11, (±)-2-[2,6-Bis(1-methylethyl)phenyl]amino]-2-oxoethyl]phenylphosphinic Acid, 1-Methylheptyl Ester]",35,–
"CCCCCCCCCOP(=O)(Oc1ccccc1)N(CC(=O)Nc1c(C(C)C)cccc1C(C)C)Cc1ccccc1 (racemic) [Example 34, (±)-[[[2,6-Bis(1-methylethyl)phenyl]amino]2-oxoethyl]-(phenylmethyl)phosphoramidic Acid, Nonyl Phenyl Ester]",–,23
"CCCCCCCCCOP(=O)(c1ccccc1)N(CC(=O)Nc1c(C(C)C)cccc1C(C)C)Cc1ccccc1 (racemic) [Example 31, (±)-N-[2-[2,6-Bis(1-methylethyl)phenyl]amino]-2-oxoethyl]-P-phenyl-N-(phenylmethyl)phosphonamidic Acid, Nonyl Ester]",23,–
"CCCCCCCCCOP(=O)(OCC)N(CC(=O)Nc1c(C(C)C)cccc1C(C)C)Cc1ccccc1 (racemic) [Example 32, (±)-[2-[[2,6 Bis(1-methylethyl)phenyl]amino]-2-oxoethyl](phenylmethyl)phosphoramidic Acid, Ethyl Nonyl Ester]",–,14
"CCCCCCCCCCCCOP(=O)(CC(=O)Nc1c(C(C)C)cccc1C(C)C)c1ccccc1 (racemic) [Example 12, (±)-[2-[[2,6-Bis(1-methylethyl)phenyl]amino]-2-oxoethyl]phenylphosphinicAcid, Dodecyl Ester]",29,–
